# Test results from patent US20150147350A1, “Method Of Treating Cancer With MEGEA3 Immunotherapeutic With BRAF Inhibitor And/Or MEK Inhibitor” (GlaxoSmithKline LLC, priority 2011, published 2015).
# Tested on: systemic immunity
# Experiment: Peripheral blood immune-monitoring in cancer patients treated with BRAF inhibitor
# Description: 13 patients with tumors carrying a BRAF mutation who underwent treatment with GSK2118436 (the compound of formula (I)), a V600 mutant BRAF specific inhibitor were studied to assess effects of mutant BRAF inhibition on systemic immunity. Peripheral blood immune-monitoring was carried out before and following one or two 28-day cycles of treatment.
structure (smiles),measurement,setting,value
"CC(C)(C)c1nc(-c2cccc(NS(=O)(=O)c3c(F)cccc3F)c2F)c(-c2ccnc(N)n2)s1 [GSK2118436, N-{3-[5-(2-Amino-4-pyrimidinyl)-2-(1,1-dimethylethyl)-1,3-thiazol-4-yl]-2-fluorophenyl}-2,6-difluorobenzenesulfonamide]","impact on most immune parameters tested (serum cytokine levels, peripheral blood cell counts, leukocyte subset frequencies, memory CD4+ and CD8+ T-cell recall responses)","13 patients, before and following one or two 28-day cycles of treatment",no detectable impact
same,serum TNF-α over the course of treatment,"13 patients, one or two 28-day cycles of treatment",slight increase
same,negative impact on existing systemic immunity or the de novo generation of tumor-specific T cells,"patients, conclusion of the study",no detectable negative impact
same,circulating tumor antigen-specific CD8+ T cells,"three of the four human leukocyte antigen-A2-positive patients, following BRAF(V600) inhibitor therapy",modest increase
